Data: patent US11707454B2, “Topical roflumilast formulation having antifungal properties” (ARCUTIS BIOTHERAPEUTICS, INC., priority 2020, dated 2023)
≈ marks a conversion by molar mass, not a printed value. Read-outs that look alike come from different tables or passages of the source.

Assays:
C. albicans (ATCC 90028) = experiment: in vitro micro-dilution susceptibility assay (method of Rojas); format: cell-based; settings: for MIC: Candida albicans, read-out: minimum inhibition concentration (MIC)
Experimental: (§1) The in vitro susceptibility of Malassezia species to roflumilast was determined utilizing three Candida species as internal control isolates for all testing. These three isolates were C. albicans American Type Culture Collection (ATCC) 90028, C. krusei (ATCC 6258) and C. parapsilosis (ATCC 22019). In addition to testing roflumilast all susceptibility assays were conducted using ketoconazole and hydrocortisone as positive and negative control compounds, respectively. All assays were placed within a humidified incubator set to 32° C. for a total of seven days. Each assay was evaluated after 12 hours of incubation and, every 24 hours post incubation for a total of seven days. The assays were evaluated for visual growth of each pathogen in the no treatment control as well as determination of minimum inhibition concentration (MIC) values. The concentration that provides a 3-log10 CFU/mL reduction in fungal burden from baseline at day 0 was defined as the minimum fungicidal concentration (MHC) and was determined by quantifying fungal burdens found in the microplate at day seven.
(§2) The method of Rojas (Rojas F D, et al. Antifungal susceptibility of Malassezia furfur, Malassezia sympodialis, and Malassezia globose to azole drugs and amphotericin B evaluated using a broth microdilution method. 2014. Medical Mycology. 52:641-646) was used in which the liquid broth medium was RPMI 1640 with added 1.8% glucose, 1% peptone, 0.5% ox-bile, 0.5% malt extract, 1% glycerol, 0.5% Tween 40 and 0.05% Tween 80. Round bottom 96 well microplates were used. The inoculums were prepared in sterile saline and diluted to a final targeted concentration of 0.5×10^5 to 2.5×10^5 CFU/mL in supplemented RPMI. […] For the internal control isolate C. parapsilosis (ATCC 22019) the expected CLSI values for ketoconazole of 0.03-0.25 (at 24 hours) and 0.06-0.5 (at 48 hours) did agree with the 2-day value (Table A) of 0.5.

C. krusei (ATCC 6258) [1] = experiment: as above; format: cell-based; settings: for MIC: Pichia kudriavzevii, read-out: minimum inhibition concentration (MIC)
Experimental: as §1, §2

[2] = test system: C. parapsilosis (ATCC 22019); experiment: as above; format: cell-based; settings: C. parapsilosis (22019); for MIC: Lodderomyces parapsilosis, read-out: minimum inhibition concentration (MIC)
Experimental: as §1, §2

M. furfur (ATCC 12078) = experiment: as above; format: cell-based; settings: for MIC: Malassezia furfur, read-out: minimum inhibition concentration (MIC)
Experimental: as §1, §2

M. furfur (ATCC 14521) = experiment: as above; format: cell-based; settings: for MIC: Malassezia furfur, read-out: minimum inhibition concentration (MIC)
Experimental: as §1, §2

M. furfur (ATCC 44344) = experiment: as above; format: cell-based; settings: for MIC: Malassezia furfur, read-out: minimum inhibition concentration (MIC)
Experimental: as §1, §2

[3] = test system: M. globose (ATCC MYA-4889); experiment: as above; format: cell-based
Experimental: as §1, §2

[4] = test system: M. restricta (ATCC MYA-4611); experiment: as above; format: cell-based
Experimental: as §1, §2

C. krusei (ATCC 6258) [5] = settings: cited from earlier work
[6] = test system: C. parapsilosis (ATCC 22019); settings: cited from earlier work

`CC(=O)N1CCN(c2ccc(OCC3COC(Cn4ccnc4)(c4ccc(Cl)cc4Cl)O3)cc2)CC1` (centres unmarked) [Ketoconazole] gave an MIC (C. albicans (ATCC 90028); ATCC90028, 24 h, Time 1 days) of 0.06 mg/L (≈ 0.113 µM), an MIC (C. albicans (ATCC 90028); ATCC90028, 48 h, Time 2 days) of 0.06 mg/L (≈ 0.113 µM) and an MIC (C. albicans (ATCC 90028); ATCC90028, 72 h, Time 3 days) of 0.125 mg/L (≈ 0.235 µM). The MIC (C. albicans (ATCC 90028); ATCC90028, 96 h, Time 4 days) was 0.25 mg/L (≈ 0.47 µM), the MIC (C. albicans (ATCC 90028); ATCC90028, 120 h, Time 5 days) was 0.25 mg/L (≈ 0.47 µM) and the MIC (C. albicans (ATCC 90028); ATCC90028, 144 h, Time 6 days) was 0.25 mg/L (≈ 0.47 µM). For the same molecule, the MIC (C. albicans (ATCC 90028); ATCC90028, 168 h, Time 7 days) was 0.25 mg/L (≈ 0.47 µM), the “minimum inhibition concentration (MIC)” value (C. albicans (ATCC 90028); Time 0.5 days) was “NGO” and the MIC (C. krusei (ATCC 6258) [1]; ATCC6258, 24 h, Time 1 days) was 4 mg/L (≈ 7.53 µM). The MIC (C. krusei (ATCC 6258) [1]; ATCC6258, 48 h, Time 2 days) was 8 mg/L (≈ 15.1 µM), the MIC (C. krusei (ATCC 6258) [1]; ATCC6258, 72 h, Time 3 days) was 16 mg/L (≈ 30.1 µM) and the MIC (C. krusei (ATCC 6258) [1]; ATCC6258, 96 h, Time 4 days) was 16 mg/L (≈ 30.1 µM). For the same molecule, the MIC (C. krusei (ATCC 6258) [1]; ATCC6258, 120 h, Time 5 days) was 16 mg/L (≈ 30.1 µM), the MIC (C. krusei (ATCC 6258) [1]; ATCC6258, 144 h, Time 6 days) was 32 mg/L (≈ 60.2 µM) and the MIC (C. krusei (ATCC 6258) [1]; ATCC6258, 168 h, Time 7 days) was 32 mg/L (≈ 60.2 µM). For the same molecule, the “minimum inhibition concentration (MIC)” value (C. krusei (ATCC 6258) [1]; Time 0.5 days) was “NGO”, the “minimum inhibition concentration (MIC)” value ([2]; Time 0.5 days) was “NGO” and the MIC ([2]; ATCC22019, 24 h, Time 1 days) was 0.5 mg/L (≈ 0.941 µM). For the same molecule, the MIC ([2]; ATCC22019, 48 h, Time 2 days) was 0.5 mg/L (≈ 0.941 µM), the MIC ([2]; ATCC22019, 72 h, Time 3 days) was 0.5 mg/L (≈ 0.941 µM) and the MIC ([2]; ATCC22019, 96 h, Time 4 days) was 0.5 mg/L (≈ 0.941 µM). For the same molecule, the MIC ([2]; ATCC22019, 120 h, Time 5 days) was 1 mg/L (≈ 1.88 µM), the MIC ([2]; ATCC22019, 144 h, Time 6 days) was 1 mg/L (≈ 1.88 µM) and the MIC ([2]; ATCC22019, 168 h, Time 7 days) was 2 mg/L (≈ 3.76 µM). For the same molecule, the MIC (M. furfur (ATCC 12078); ATCC12078, 48 h, Time 2 days) was 0.06 mg/L (≈ 0.113 µM), the MIC (M. furfur (ATCC 12078); ATCC12078, 72 h, Time 3 days) was 0.06 mg/L (≈ 0.113 µM) and the MIC (M. furfur (ATCC 12078); ATCC12078, 96 h, Time 4 days) was 0.06 mg/L (≈ 0.113 µM). For the same molecule, the MIC (M. furfur (ATCC 12078); ATCC12078, 120 h, Time 5 days) was 0.06 mg/L (≈ 0.113 µM), the MIC (M. furfur (ATCC 12078); ATCC12078, 144 h, Time 6 days) was 0.06 mg/L (≈ 0.113 µM) and the MIC (M. furfur (ATCC 12078); ATCC12078, 168 h, Time 7 days) was 0.25 mg/L (≈ 0.47 µM). The “minimum inhibition concentration (MIC)” value (M. furfur (ATCC 12078); Time 0.5 days) was “NGO”, the “minimum inhibition concentration (MIC)” value (M. furfur (ATCC 12078); Time 1 days) was “NGO” and the MIC (M. furfur (ATCC 14521); ATCC14521, 48 h, Time 2 days) was 0.03 mg/L (≈ 0.0565 µM). It also gave an MIC (M. furfur (ATCC 14521); ATCC14521, 72 h, Time 3 days) of 0.06 mg/L (≈ 0.113 µM), an MIC (M. furfur (ATCC 14521); ATCC14521, 96 h, Time 4 days) of 0.06 mg/L (≈ 0.113 µM) and an MIC (M. furfur (ATCC 14521); ATCC14521, 120 h, Time 5 days) of 0.06 mg/L (≈ 0.113 µM). The MIC (M. furfur (ATCC 14521); ATCC14521, 144 h, Time 6 days) was 0.06 mg/L (≈ 0.113 µM), the MIC (M. furfur (ATCC 14521); ATCC14521, 168 h, Time 7 days) was 0.25 mg/L (≈ 0.47 µM) and the “minimum inhibition concentration (MIC)” value (M. furfur (ATCC 14521); Time 0.5 days) was “NGO”. For the same molecule, the “minimum inhibition concentration (MIC)” value (M. furfur (ATCC 14521); Time 1 days) was “NGO”, the MIC (M. furfur (ATCC 44344); ATCC44344, 48 h, Time 2 days) was 0.125 mg/L (≈ 0.235 µM) and the MIC (M. furfur (ATCC 44344); ATCC44344, 72 h, Time 3 days) was 0.125 mg/L (≈ 0.235 µM). The MIC (M. furfur (ATCC 44344); ATCC44344, 96 h, Time 4 days) was 0.125 mg/L (≈ 0.235 µM), the MIC (M. furfur (ATCC 44344); ATCC44344, 120 h, Time 5 days) was 0.25 mg/L (≈ 0.47 µM) and the MIC (M. furfur (ATCC 44344); ATCC44344, 144 h, Time 6 days) was 0.25 mg/L (≈ 0.47 µM). For the same molecule, the MIC (M. furfur (ATCC 44344); ATCC44344, 168 h, Time 7 days) was 0.125 mg/L (≈ 0.235 µM), the “minimum inhibition concentration (MIC)” value (M. furfur (ATCC 44344); Time 0.5 days) was “NGO” and the “minimum inhibition concentration (MIC)” value (M. furfur (ATCC 44344); Time 1 days) was “NGO”. The “minimum inhibition concentration (MIC)” value ([3]; Time 0.5 days) was “NGO”, the “minimum inhibition concentration (MIC)” value ([3]; Time 1 days) was “NGO” and the “minimum inhibition concentration (MIC)” value ([3]; Time 2 days) was “NGO”. For the same molecule, the “minimum inhibition concentration (MIC)” value ([3]; Time 3 days) was “NGO”, the “minimum inhibition concentration (MIC)” value ([3]; Time 4 days) was “NGO” and the “minimum inhibition concentration (MIC)” value ([3]; Time 5 days) was “NGO”. For the same molecule, the “minimum inhibition concentration (MIC)” value ([3]; Time 6 days) was “NGO”, the “minimum inhibition concentration (MIC)” value ([3]; Time 7 days) was “NGO” and the “minimum inhibition concentration (MIC)” value ([4]; Time 0.5 days) was “NGO”. The “minimum inhibition concentration (MIC)” value ([4]; Time 1 days) was “NGO”, the “minimum inhibition concentration (MIC)” value ([4]; Time 2 days) was “NGO” and the “minimum inhibition concentration (MIC)” value ([4]; Time 3 days) was “NGO”. The “minimum inhibition concentration (MIC)” value ([4]; Time 4 days) was “NGO”, the “minimum inhibition concentration (MIC)” value ([4]; Time 5 days) was “NGO” and the “minimum inhibition concentration (MIC)” value ([4]; Time 6 days) was “NGO”. The “minimum inhibition concentration (MIC)” value ([4]; Time 7 days) was “NGO”, the CLSI expected values (C. krusei (ATCC 6258) [5]; at 24 hours) was 0.12-1 and the CLSI expected values (C. krusei (ATCC 6258) [5]; at 48 hours) was 0.25-1. For the same molecule, the “expected CLSI values” ([6]; at 24 hours) was 0.03-0.25 and the “expected CLSI values” ([6]; at 48 hours) was 0.06-0.5.
